# Test results published in ChEMBL document CHEMBL1156632, “Enhanced antimalarial activity of novel synthetic aculeatin derivatives” (J Med Chem, 2008).
# Experiments:
# [1] = tested on: K562; assay: (§1) Cytotoxicity against human K562 cells assessed as radioactive thymidine incorporation after 24 hrs; assay type: cell-based; conditions: k562, 24 h; for CC50: 24 h
# [2] = tested on: Plasmodium falciparum; assay: Antimalarial activity against Plasmodium falciparum 3D7 in human erythrocytes after 48hrs by [3H]hypoxanthine uptake; assay type: functional, organism-based
# [3] = tested on: Toxoplasma gondii; assay: Antitoxoplasmal activity against Toxoplasma gondii RH-beta1 in HFF cells assessed as beta-galactosidase activity after 48 to 72 hrs by colorimetric microtiter assay; assay type: functional, organism-based
# [4] = Selectivity index, ratio of CC50 for human K562 cells to IC50 for Toxoplasma gondii RH-beta1; assay type: functional
# [5] = tested on: Plasmodium falciparum; assay: Antimalarial activity against Plasmodium falciparum K1; assay type: functional, organism-based
# [6] = as §1; assay type: cell-based; conditions: K562 cells
# [7] = Selectivity index, ratio of CC50 for human K562 cells to IC50 for Plasmodium falciparum 3D7; assay type: functional
# [8] = Toxoplasma gondii, RH-beta1, HFF
SMILES,Activity [1],"IC50 ([2]; Plasmodium falciparum, 3D7) [nM]","IC50 [3, 8] [nM]",Selectivity Index [4],CC50 [1] [µM],IC50 [2] [nM],IC50 [5] [nM],CC50 at 24 h [6] [µM],Selectivity Index [7],IC50 ([3]; hff) [nM]
O=C1C=CC2(C=C1)CC[C@]1(CC(O)C[C@]3(CCC4(C=CC(=O)C=C4)O3)O1)O2 (some centres undefined),Toxic,584,1500,35,–,–,–,–,–,–
CCCCCCCCCCCCC[C@@H]1C[C@H](O)C[C@@]2(CCC3(C=CC(=O)C=C3)O2)O1,–,–,309,–,25.5,288,180,–,–,–
CCCCCCCCCCCCCC(=O)OC1C[C@]2(CCC3(C=CC(=O)C=C3)O2)O[C@]2(CCC3(C=CC(=O)C=C3)O2)C1 (some centres undefined),–,92,636,–,–,–,–,11.3,123,–
CCCCCCCCCCCCCC(=O)O[C@@H]1C[C@]2(CCC3(C=CC(=O)C=C3)O2)O[C@]2(CCC3(C=CC(=O)C=C3)O2)C1,–,81,346,–,–,–,–,8.75,109,–
CCCCCCCCCCCCCC(=O)CC(=O)O[C@@H]1C[C@]2(CCC3(C=CC(=O)C=C3)O2)O[C@]2(CCC3(C=CC(=O)C=C3)O2)C1,–,120,–,35,–,–,–,< 0.38,35,–
O=C1C=CC2(C=C1)CC[C@]1(C[C@@H](O)C[C@@]3(CCC4(C=CC(=O)C=C4)O3)O1)O2,–,414,173,35,–,–,–,0.39,35,–
CCCCCCC(=O)O[C@@H]1C[C@]2(CCC3(C=CC(=O)C=C3)O2)O[C@]2(CCC3(C=CC(=O)C=C3)O2)C1,–,343,–,35,–,–,–,< 0.38,35,–
CCCCCCC(=O)OC1C[C@]2(CCC3(C=CC(=O)C=C3)O2)O[C@]2(CCC3(C=CC(=O)C=C3)O2)C1 (some centres undefined),–,331,–,35,–,–,–,< 0.38,–,–
CCCCCCCCCCCCC[C@@H](O)C[C@@H](O)CC(=O)CCc1ccc(O)cc1,–,> 10000,–,–,–,–,–,34.5,35,–
CCCCCCCCCCC(CCCCCCCCCC)OC(=O)C[C@H]1C[C@H](O)C[C@@]2(CCC3(C=CC(=O)C=C3)O2)O1 (racemic),–,1150,4450,35,–,–,–,22.1,35,–
CCCCCCCCCCCCC[C@@H]1C[C@@H](O)C[C@]2(CCC3(CCC(=O)CC3)O2)O1 (racemic),–,> 5000,11000,35,–,–,–,25.6,–,–
CCCCCCCCCCCCCCCCCCOC(=O)C[C@H]1C[C@H](O)C[C@@]2(CCC3(C=CC(=O)C=C3)O2)O1 (racemic),–,770,2400,35,–,–,–,13.9,35,–
CCCCCCCCCCCCCCCCCCOC(=O)C[C@H]1C[C@@H](O)C[C@]2(CCC3(C=CC(=O)C=C3)O2)O1 (racemic),–,1130,3520,35,–,–,–,15.6,35,–
CCCCCCCCCCCCCCCCCCOC(=O)C[C@H]1C[C@@H](O)C[C@@]2(CCC3(C=CC(=O)C=C3)O2)O1 (racemic),–,1030,3540,35,–,–,–,17.5,35,–
CCCOC(=O)C[C@H]1C[C@H](O)C[C@@]2(CCC3(C=CC(=O)C=C3)O2)O1 (racemic),–,1840,500,219,–,–,–,109,–,–
CCCCCCN(CCCCCC)C(=O)C[C@H]1C[C@H](O)C[C@@]2(CCC3(C=CC(=O)C=C3)O2)O1 (racemic),–,899,–,35,–,–,–,0.39,35,–
"CCCCCCCCCCCCCC1C[C@H](O)CC2(CCC3(C=CC(=O)C=C3)O2)O1 (single isomer, unassigned)",–,329,627,–,–,–,–,22.1,35,–
"CCCCCCCCCCCCCC1C[C@@H](O)CC2(CCC3(C=CC(=O)C=C3)O2)O1 (single isomer, unassigned) [ACULEATIN A]",–,–,436,35,–,220,–,26.7,35,–
"CCCCCCCCCCCCC[C@@H]1CC(O)CC2(CCC3(C=CC(=O)C=C3)O2)O1 (single isomer, unassigned; form 1) [ACULEATINS B]",–,–,–,–,30.2,451,–,–,–,377
"CCCCCCCCCCCCC[C@@H]1CC(O)CC2(CCC3(C=CC(=O)C=C3)O2)O1 (single isomer, unassigned; form 2)",–,335,–,35,–,–,–,25.8,35,436
"CCCCCCCCCCCCC[C@@H]1CC(O)CC2(CCC3(C=CC(=O)C=C3)O2)O1 (single isomer, unassigned; form 3) [ACULEATINS B]",–,366,400,35,–,–,–,30.8,35,–
CCCCCCCCCCOC(=O)C[C@H]1C[C@H](O)C[C@@]2(CCC3(C=CC(=O)C=C3)O2)O1 (stereo in doubt),–,654,341,35,–,–,–,28.2,35,–
CCCCCCCCCCOC(=O)C[C@@H]1C[C@@H](O)C[C@]2(CCC3(C=CC(=O)C=C3)O2)O1 (stereo in doubt),–,1360,1630,–,–,–,–,41.2,35,–
CCCCCCCCCCCCC[C@H]1C[C@@H](O)C[C@]2(CCC3(C=CC(=O)C=C3)O2)O1 [(+)-ACULEATIN B],–,454,365,35,–,–,430,27.5,35,–
CCCCCCCCCCCCC[C@@H]1C[C@@H](O)C[C@]2(CCC3(C=CC(=O)C=C3)O2)O1 [ACULEATIN A],–,–,–,–,28,478,1000,–,–,640
CCN(CC)CCCC(C)Nc1ccnc2cc(Cl)ccc12 (centres undefined) [CHLOROQUINE],–,–,–,–,–,–,–,9.7,–,–
